Laboratory results: patent US20240293380A1, “PROTEASE INHIBITORS AND METHODS OF USE” (priority 2021, published 2024)
pEC50, pIC50: −log10 of the molar value.

Tested on: SARS-CoV-2
Assay: microbe, parasite or virus in culture
Type: cell-based, SARS-Related Coronavirus 2, Isolate USA-WA1/2020
Conditions: Severe acute respiratory syndrome coronavirus 2, Vero C1008

Row | SMILES | pEC50
1 | O=C(Cc1cncc2ccccc12)N(Cc1cc(F)cc(Cl)c1)c1ccc(-c2c[nH]cn2)cc1 [Compound 12, N-[(3-chloro-5-fluoro-phenyl)methyl]-N-[4-(1H-imidazol-4-yl)phenyl]-2-(4-isoquinolyl)acetamide] | 5.94

Biological target: SARS-CoV-2 3CLpro (Severe acute respiratory syndrome coronavirus 2 (2019-nCoV) (SARS-CoV-2), UniProt P0DTD1)
Assay: not given
Type: biochemical
Conditions: not given

Row | SMILES | pIC50
2 | Cc1cncc(CC(=O)N(Cc2cc(F)cc(Cl)c2)c2ccc(-c3c[nH]cn3)cc2)c1 [Compound 70] | 7.08
3 | O=C(Cc1cncc(F)c1)N(Cc1cc(F)cc(Cl)c1)c1ccc(-c2c[nH]cn2)cc1 [Compound 69] | 6.66
4 | O=C(Cc1cncc2ccccc12)N(Cc1cc(F)cc(Cl)c1)c1ccc(-c2c[nH]cn2)cc1 [Compound 12, N-[(3-chloro-5-fluoro-phenyl)methyl]-N-[4-(1H-imidazol-4-yl)phenyl]-2-(4-isoquinolyl)acetamide] | 7.82
5 | O=C(Cc1cncc2ccccc12)N(Cc1cncc(C(F)(F)F)c1)c1ccc(-c2c[nH]cn2)cc1 [Compound 39] | 7.09
6 | O=C(Cc1cncc2ccccc12)N(Cc1cc(Cl)ccc1F)c1ccc(-c2c[nH]cn2)cc1 [Compound 15] | 6.51
7 | O=C(Cc1cnccn1)N(Cc1cccc(Cl)c1)c1ccc(-c2cn[nH]c2)cc1 [Compound 5, N-[(3-chlorophenyl)methyl]-2-pyrazin-2-yl-N-[4-(1H-pyrazol-4-yl)phenyl]acetamide] | 5.28
8 | O=C(Cc1nnc2ccccn12)N(Cc1cccc(Cl)c1)c1ccc(-c2cn[nH]c2)cc1 [Compound 1, N-[(3-chlorophenyl)methyl]-N-[4-(1H-pyrazol-4-yl)phenyl]-2-([1,2,4]triazolo[4,3-a]pyridin-3-yl)acetamide] | 6.44
9 | O=C(Cc1cncc2ccccc12)N(Cc1cc(F)cc(Cl)c1)c1ccc(-c2c[nH]cn2)cn1 [Compound 29] | 7.40
10 | O=C(Cc1cncc2ccccc12)N(Cc1cc(F)cc(F)c1)c1ccc(C2=CCNC2)cc1 [Compound 56] | 6.86
11 | Cc1ccncc1CC(=O)N(Cc1cc(F)cc(Cl)c1)c1ccc(-c2c[nH]cn2)cc1 [Compound 77] | 6.87
12 | O=C(Cc1nncc2ccccc12)N(Cc1cc(F)cc(Cl)c1)c1ccc(-c2c[nH]cn2)cc1 [Compound 73] | 7.21
13 | O=C(Cc1cncc2ccccc12)N(Cc1cccc(F)c1F)c1ccc(-c2c[nH]cn2)cc1 [Compound 25] | 6.74
